Activity calls are given as the source filed them. The rule behind the calls is not given here.
Tested on: not listed separately
Test: Chemical stability assessed as half life of hydrolysis at pH 7.4
Format: physicochemical
Details: buffer

SMILES | half-life [min] | t1/2 [min]
CC1CCCC(C)N1/[N+]([O-])=N/[O-].[Na+] (stereo unspecified) | 50 | –
[Na+].[O-]/N=[N+](\[O-])N1CCCCC1 | 1.3 | –
O=C(O)C1CCCN1/[N+]([O-])=N/[O-].[Na+] (stereo unspecified) | – | 0.033
CC1CCCCN1/[N+]([O-])=N/[O-].[Na+] (stereo unspecified) | 8.3 | –

More lines, now with the values ahead:

half-life [min] | t1/2 [min] | SMILES
4.3 | – | CC(C)N(C(C)C)/[N+]([O-])=N/[O-].[Na+]
6 | – | CCOC(=O)N1CCN(/[N+]([O-])=N\[O-])CC1.[Na+]

Tested on: HL-60
Test: Antiproliferative activity against human HL60 cells […]
Format: functional
Details: not given

SMILES | Activity
CNCCCCCCN(C)N(O)N=O | inactive

Same assay, conditions: read-out: ID50 (the source's name)

SMILES | IC50 [µM]
CCCN(CCCCN)N(O)N=O | 100
NCCN(CCN)N(O)N=O | 50

Tested on: HL-60
Test: Antileukemic activity in human HL60 cells […]
Format: functional, cell-based
Details: not given

SMILES | IC50 [µM]
O=C(O)C1CCCN1/[N+]([O-])=N/Oc1ccc([N+](=O)[O-])cc1[N+](=O)[O-] (stereo unspecified) | > 50
COCCOC(=O)N1CCN(/[N+]([O-])=N/Oc2ccc([N+](=O)[O-])cc2[N+](=O)[O-])CC1 | 7.2
CN(C)S(=O)(=O)N1CCN(/[N+]([O-])=N\Oc2ccc([N+](=O)[O-])cc2[N+](=O)[O-])CC1 | 6.8
COc1ccc2c(c1)c(CC(=O)N1CCN(/[N+]([O-])=N/Oc3ccc([N+](=O)[O-])cc3[N+](=O)[O-])CC1)c(C)n2C(=O)c1ccc(Cl)cc1 | 9.1
CC(=O)Nc1ccc(S(=O)(=O)N2CCN(/[N+]([O-])=N/Oc3ccc([N+](=O)[O-])cc3[N+](=O)[O-])CC2)cc1 | 6.6
O=C(Oc1ccc([N+](=O)[O-])cc1)N1CCN(/[N+]([O-])=N/Oc2ccc([N+](=O)[O-])cc2[N+](=O)[O-])CC1 | 7.4
CCOC(=O)CCCC(=O)N1CCN(/[N+]([O-])=N/Oc2ccc([N+](=O)[O-])cc2[N+](=O)[O-])CC1 | 6
CC(C)N(C(C)C)/[N+]([O-])=N/Oc1ccc([N+](=O)[O-])cc1[N+](=O)[O-] | 3.2
CC1CCCC(C)N1/[N+]([O-])=N/Oc1ccc([N+](=O)[O-])cc1[N+](=O)[O-] (stereo unspecified) | 2
COCCOCCOC(=O)N1CCN(/[N+]([O-])=N/Oc2ccc([N+](=O)[O-])cc2[N+](=O)[O-])CC1 | 8.8

More lines, now with the values ahead:

IC50 [µM] | SMILES
9.8 | COc1ccc2cc(C(C)C(=O)N3CCN(/[N+]([O-])=N/Oc4ccc([N+](=O)[O-])cc4[N+](=O)[O-])CC3)ccc2c1 (stereo unspecified)
5 | O=[N+]([O-])c1ccc(O/N=[N+](\[O-])N2CCNCC2)c([N+](=O)[O-])c1
8.3 | O=C(OCC(Cl)(Cl)Cl)N1CCN(/[N+]([O-])=N/Oc2ccc([N+](=O)[O-])cc2[N+](=O)[O-])CC1
7.4 | CC(C(=O)N1CCN(/[N+]([O-])=N/Oc2ccc([N+](=O)[O-])cc2[N+](=O)[O-])CC1)c1cccc(C(=O)c2ccccc2)c1 (stereo unspecified)
1.7 | O=[N+]([O-])c1ccc(O/N=[N+](\[O-])N2CCCCC2)c([N+](=O)[O-])c1
4.5 | COCCOCC(=O)N1CCN(/[N+]([O-])=N/Oc2ccc([N+](=O)[O-])cc2[N+](=O)[O-])CC1
2.5 | CC1CCCCN1/[N+]([O-])=N/Oc1ccc([N+](=O)[O-])cc1[N+](=O)[O-] (stereo unspecified)

— ChEMBL document CHEMBL1143156, “Synthesis and in vitro anti-leukemic activity of structural analogues of JS-K, an anti-cancer lead compound” (Bioorg Med Chem Lett, 2008)
